# Assay results as given in ChEMBL document CHEMBL1201862, “PubChem BioAssay data set” (2004).
# Calls of active or inactive are those of the source.
# Columns and labels:
# [1] = target: T1, Replicative DNA helicase DnaB (Mycobacterium tuberculosis, UniProt P9WMR3); experiment: DnaB intein splicing inhibitors, dose response, biochemical, cell-free fluorescence (AID 449749); assay type: functional
# T1 sequence (P9WMR3 whole entry): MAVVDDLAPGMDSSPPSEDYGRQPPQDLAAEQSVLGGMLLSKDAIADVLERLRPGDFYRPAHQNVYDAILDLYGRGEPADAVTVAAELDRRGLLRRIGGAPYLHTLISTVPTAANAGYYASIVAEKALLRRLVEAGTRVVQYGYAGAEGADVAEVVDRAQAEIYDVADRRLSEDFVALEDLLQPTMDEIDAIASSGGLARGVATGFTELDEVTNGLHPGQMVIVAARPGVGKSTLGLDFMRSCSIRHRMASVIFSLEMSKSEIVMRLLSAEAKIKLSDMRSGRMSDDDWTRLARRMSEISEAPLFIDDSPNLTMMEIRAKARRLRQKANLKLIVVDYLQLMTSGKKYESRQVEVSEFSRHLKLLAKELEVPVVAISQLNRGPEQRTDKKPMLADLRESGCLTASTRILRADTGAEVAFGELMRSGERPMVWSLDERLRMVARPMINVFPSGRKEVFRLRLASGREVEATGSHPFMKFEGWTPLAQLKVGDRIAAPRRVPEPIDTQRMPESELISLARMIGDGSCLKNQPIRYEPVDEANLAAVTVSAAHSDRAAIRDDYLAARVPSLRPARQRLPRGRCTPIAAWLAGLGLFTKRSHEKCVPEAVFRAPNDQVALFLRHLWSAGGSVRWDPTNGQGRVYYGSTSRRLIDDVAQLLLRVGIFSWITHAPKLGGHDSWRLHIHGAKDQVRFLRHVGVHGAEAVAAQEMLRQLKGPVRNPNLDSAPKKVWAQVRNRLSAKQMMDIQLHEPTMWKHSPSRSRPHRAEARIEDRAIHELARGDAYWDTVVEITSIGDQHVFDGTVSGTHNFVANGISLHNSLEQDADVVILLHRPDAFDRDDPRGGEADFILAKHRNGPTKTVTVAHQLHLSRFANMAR
# [2] = system: BJ; experiment: cells; assay type: functional, cell-based; settings: Homo sapiens
# [3] = cytotoxicity toward DRD oncogenic fibroblasts, dose response, cell-based, non-viral oncogenic, luminescence (AID 1934); assay type: functional; settings: Homo sapiens
# [4] = Intein inhibitors as potential Tuberculosis drugs, a cytotoxicity screen. [Related pubchem assays (depositor defined):AID2221, AID2223, AID434968, AID435010, AID449749, AID449750, AID489010]; assay type: functional
# [5] = system: BJ; experiment: cytotoxicity toward BJ-TERT-LT-ST fibroblasts, dose response, cell-based, RAS-independent, luminescence (AID 1935); assay type: functional; settings: Homo sapiens;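 further: BJ fibroblasts immortalized with TERT plus LT and ST oncogenes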
# [6] = system: BJ; experiment: cytotoxicity toward BJ-TERT fibroblasts, dose response, cell-based, RAS-independent, luminescence (AID 1933); assay type: functional; settings: Homo sapiens
# [7] = target: T2, Hexokinase HKDC1 (Homo sapiens, UniProt Q2TB90); experiment: HKDC1 hexokinase inhibitors, dose response, biochemical, W721R variant (AID 504729); assay type: functional
# T2 sequence (Q2TB90 whole entry): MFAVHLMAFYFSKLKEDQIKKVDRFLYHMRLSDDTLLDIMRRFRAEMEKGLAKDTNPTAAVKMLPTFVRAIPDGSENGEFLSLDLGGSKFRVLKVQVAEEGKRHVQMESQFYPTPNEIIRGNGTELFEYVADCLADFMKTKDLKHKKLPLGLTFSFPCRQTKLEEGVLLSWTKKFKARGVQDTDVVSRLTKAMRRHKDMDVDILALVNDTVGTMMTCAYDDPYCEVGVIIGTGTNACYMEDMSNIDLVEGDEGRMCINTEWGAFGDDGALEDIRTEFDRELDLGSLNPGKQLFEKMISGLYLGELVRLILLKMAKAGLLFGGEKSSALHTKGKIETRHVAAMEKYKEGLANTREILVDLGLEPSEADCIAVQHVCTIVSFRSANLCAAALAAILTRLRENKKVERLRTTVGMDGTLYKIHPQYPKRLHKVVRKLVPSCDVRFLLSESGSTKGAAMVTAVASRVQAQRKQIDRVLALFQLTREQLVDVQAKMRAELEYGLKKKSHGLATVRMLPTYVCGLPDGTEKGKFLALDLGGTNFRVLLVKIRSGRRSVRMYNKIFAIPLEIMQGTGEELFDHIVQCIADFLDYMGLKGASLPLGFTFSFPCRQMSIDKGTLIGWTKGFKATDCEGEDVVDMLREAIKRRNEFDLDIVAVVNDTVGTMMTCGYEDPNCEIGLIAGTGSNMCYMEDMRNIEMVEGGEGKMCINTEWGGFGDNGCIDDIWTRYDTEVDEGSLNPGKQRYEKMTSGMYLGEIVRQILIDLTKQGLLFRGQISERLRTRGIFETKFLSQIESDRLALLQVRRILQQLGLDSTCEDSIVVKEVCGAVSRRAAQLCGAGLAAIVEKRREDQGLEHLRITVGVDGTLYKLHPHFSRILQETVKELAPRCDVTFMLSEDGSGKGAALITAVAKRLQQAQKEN
# [8] = target: T3, Protein RecA (Mycobacterium tuberculosis, UniProt P9WHJ3); experiment: Fluorescence Cell-Free Homogeneous Dose Retest to Identify Inhibitors of RecA-Intein Splicing Activity. [Related pubchem assays (depositor defined):AID2097, AID2223, AID489010, AID492950]; assay type: functional
# T3 sequence (P9WHJ3 whole entry): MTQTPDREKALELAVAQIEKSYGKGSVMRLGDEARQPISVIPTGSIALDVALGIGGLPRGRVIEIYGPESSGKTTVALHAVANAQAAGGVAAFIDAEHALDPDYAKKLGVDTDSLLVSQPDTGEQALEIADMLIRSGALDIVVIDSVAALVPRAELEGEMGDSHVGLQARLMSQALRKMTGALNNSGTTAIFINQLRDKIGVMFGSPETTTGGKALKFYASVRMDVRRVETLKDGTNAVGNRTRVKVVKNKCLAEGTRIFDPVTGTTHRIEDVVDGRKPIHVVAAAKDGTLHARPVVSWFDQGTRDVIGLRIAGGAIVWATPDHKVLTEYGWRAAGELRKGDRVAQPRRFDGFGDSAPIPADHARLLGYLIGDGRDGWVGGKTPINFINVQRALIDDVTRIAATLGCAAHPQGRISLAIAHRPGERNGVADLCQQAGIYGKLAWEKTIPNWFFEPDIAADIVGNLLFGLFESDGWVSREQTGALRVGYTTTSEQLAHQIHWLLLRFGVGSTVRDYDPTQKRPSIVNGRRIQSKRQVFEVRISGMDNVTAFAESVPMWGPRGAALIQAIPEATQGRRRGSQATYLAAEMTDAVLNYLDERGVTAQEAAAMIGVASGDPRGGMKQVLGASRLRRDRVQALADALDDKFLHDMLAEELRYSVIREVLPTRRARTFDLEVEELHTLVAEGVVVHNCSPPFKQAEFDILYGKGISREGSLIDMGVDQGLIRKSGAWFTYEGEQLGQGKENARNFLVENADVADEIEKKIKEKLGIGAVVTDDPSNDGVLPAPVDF
# [9] = target: Alkaline phosphatase, placental type (Homo sapiens, UniProt P05187); experiment: PLAP enzyme inhibitors, confirmation, biochemical, luminescence (AID 1512); assay type: functional
# Sequence of Alkaline phosphatase, placental type (P05187 whole entry): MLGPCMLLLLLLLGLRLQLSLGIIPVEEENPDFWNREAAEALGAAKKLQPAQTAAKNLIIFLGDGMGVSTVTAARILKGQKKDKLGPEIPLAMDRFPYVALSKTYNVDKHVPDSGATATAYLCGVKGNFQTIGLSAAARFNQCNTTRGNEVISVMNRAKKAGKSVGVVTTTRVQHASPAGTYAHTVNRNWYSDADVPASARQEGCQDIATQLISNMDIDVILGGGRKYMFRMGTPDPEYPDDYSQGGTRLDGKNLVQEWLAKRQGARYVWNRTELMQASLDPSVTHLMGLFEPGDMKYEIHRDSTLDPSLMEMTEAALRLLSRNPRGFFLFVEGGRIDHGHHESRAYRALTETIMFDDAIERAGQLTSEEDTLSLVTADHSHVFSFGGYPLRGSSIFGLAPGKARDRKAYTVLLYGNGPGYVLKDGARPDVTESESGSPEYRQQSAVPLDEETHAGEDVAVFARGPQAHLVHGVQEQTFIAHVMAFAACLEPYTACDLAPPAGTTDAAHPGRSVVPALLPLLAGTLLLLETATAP
# [10] = target: T4, Alkaline phosphatase, tissue-nonspecific isozyme (Homo sapiens, UniProt P05186); experiment: human TNAP enzyme inhibitors, SAR follow-up, biochemical, luminescent, dose response (AID 1056)
# T4 sequence (P05186 whole entry): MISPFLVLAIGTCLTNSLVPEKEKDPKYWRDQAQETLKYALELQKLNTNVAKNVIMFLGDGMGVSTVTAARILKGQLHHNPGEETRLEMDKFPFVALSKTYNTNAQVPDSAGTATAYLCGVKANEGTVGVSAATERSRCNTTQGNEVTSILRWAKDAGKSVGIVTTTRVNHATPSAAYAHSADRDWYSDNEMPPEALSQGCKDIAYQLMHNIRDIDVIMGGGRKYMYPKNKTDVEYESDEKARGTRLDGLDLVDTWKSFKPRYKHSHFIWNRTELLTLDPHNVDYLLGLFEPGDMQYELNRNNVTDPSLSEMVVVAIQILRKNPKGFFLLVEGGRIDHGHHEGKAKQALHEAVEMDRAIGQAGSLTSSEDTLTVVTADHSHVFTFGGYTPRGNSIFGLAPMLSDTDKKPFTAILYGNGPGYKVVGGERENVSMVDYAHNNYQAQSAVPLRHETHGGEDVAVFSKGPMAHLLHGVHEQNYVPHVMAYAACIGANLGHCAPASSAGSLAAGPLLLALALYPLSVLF
# [11] = target: Paired box protein Pax-8 (Homo sapiens, UniProt Q06710); experiment: inhibitors of PAX8-driven TPO luciferase reporter, dose response, RMG-I cells, cherry-pick (AID 687027); assay type: functional, cell-based;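 further: luciferase reporter driven by Pax8 target thyroperoxidase promoter measured by SteadyGlo luminescence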
# Sequence of Paired box protein Pax-8 (Q06710 whole entry): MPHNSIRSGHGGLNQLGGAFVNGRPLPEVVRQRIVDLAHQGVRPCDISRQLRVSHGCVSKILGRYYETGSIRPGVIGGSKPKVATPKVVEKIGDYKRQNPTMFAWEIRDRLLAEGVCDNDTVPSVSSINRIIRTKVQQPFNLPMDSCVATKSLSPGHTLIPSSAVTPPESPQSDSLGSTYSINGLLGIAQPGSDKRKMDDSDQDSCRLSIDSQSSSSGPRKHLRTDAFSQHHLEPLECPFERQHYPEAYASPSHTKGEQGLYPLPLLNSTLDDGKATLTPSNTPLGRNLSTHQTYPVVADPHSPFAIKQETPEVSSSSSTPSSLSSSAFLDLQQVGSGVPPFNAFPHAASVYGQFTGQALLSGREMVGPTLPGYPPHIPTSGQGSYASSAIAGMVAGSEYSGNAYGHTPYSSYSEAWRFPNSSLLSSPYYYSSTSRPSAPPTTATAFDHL
# [12] = system: Vero; experiment: host cell cytotoxicity of antiviral hits, dose response, cytotoxicity control for West Nile virus antiviral project, secondary assay (AID 1650); assay type: functional; settings: Chlorocebus sabaeus
# [13] = target: T5, Heat shock factor protein 1 (Mus musculus, UniProt P38532); experiment: HSF1 potentiators in luciferase reporter cells, confirmation, cell-based, NIH3T3, luminescence, dose retest (AID 435004); assay type: functional;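 further: stress induced by proteasome inhibitor MG132 added 30 min after compound; luciferase reporter driven by HSF1 response element in NIH3T3 cells; actives raise luminescence as potentiators of the MG132 stress response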
# T5 sequence (P38532 whole entry): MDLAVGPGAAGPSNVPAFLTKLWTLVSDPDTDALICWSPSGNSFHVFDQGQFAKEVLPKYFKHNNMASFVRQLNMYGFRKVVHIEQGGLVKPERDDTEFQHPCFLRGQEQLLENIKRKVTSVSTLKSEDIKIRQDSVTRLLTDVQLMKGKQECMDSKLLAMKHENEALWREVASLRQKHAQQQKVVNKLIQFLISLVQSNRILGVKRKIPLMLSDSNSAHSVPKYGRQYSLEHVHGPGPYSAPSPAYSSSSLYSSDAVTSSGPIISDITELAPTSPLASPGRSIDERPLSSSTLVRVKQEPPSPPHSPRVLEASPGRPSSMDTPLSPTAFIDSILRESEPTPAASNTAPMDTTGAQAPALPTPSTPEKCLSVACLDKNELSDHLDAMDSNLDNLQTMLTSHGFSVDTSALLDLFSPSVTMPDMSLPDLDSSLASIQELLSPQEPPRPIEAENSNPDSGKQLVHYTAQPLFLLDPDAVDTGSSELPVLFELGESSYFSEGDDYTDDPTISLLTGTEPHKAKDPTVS
# [14] = non-specific cell cytotoxicity, dose response, cytotoxicity control for PAX8 inhibitor project, plate reader, dry powder samples (AID 743021); assay type: functional, cell-based
# [15] = Shn3 3'UTR reporter inhibitors, dose response, cell-based, Clone20 osteoblasts, firefly luciferase, cherry-picked (AID 624132); assay type: functional;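 further: firefly luciferase luminescence from reporter carrying the Shn3 3'UTR in osteoblasts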
# [16] = control 3'UTR Renilla luciferase suppression, dose response, counter-screen for Shn3 inhibitor project, cell-based, Clone20-Shn3RL, cherry-picked (AID 624133); assay type: functional
# [17] = cytotoxicity in HEK-293T cells, dose response, cytotoxicity control for TCR NF-kB inhibitor project, luminescence, T-cell screen hits (AID 489026); assay type: functional, cell-based;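 further: cells exposed to compound about 14 hours before the viability readout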
# [18] = system: HEK293; experiment: cells; settings: Homo sapiens;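 further: cells exposed to compound for 14 hours overnight before viability readout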
# [19] = cytotoxicity in MIN6 insulinoma cells, dose response, cytotoxicity control, cell-based, mouse insulinoma (AID 2122); assay type: functional;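 further: confirmatory high-throughput counterscreen run to flag cytotoxic compounds; mouse MIN-6 beta cells carrying an insulin promoter eGFP reporter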
# [20] = HepG2 cell cytotoxicity, dose response, cytotoxicity control for Shn3 inhibitor project, CellTiter-Glo, cherry-picked (AID 624134); assay type: functional, cell-based
# [21] = target: Nucleotide-binding oligomerization domain-containing protein 1 (Homo sapiens, UniProt Q9Y239); experiment: NOD1 signaling inhibitors, SAR follow-up, revised (AID 2333); assay type: functional
# Sequence of Nucleotide-binding oligomerization domain-containing protein 1 (Q9Y239 whole entry, the tested form may be a part): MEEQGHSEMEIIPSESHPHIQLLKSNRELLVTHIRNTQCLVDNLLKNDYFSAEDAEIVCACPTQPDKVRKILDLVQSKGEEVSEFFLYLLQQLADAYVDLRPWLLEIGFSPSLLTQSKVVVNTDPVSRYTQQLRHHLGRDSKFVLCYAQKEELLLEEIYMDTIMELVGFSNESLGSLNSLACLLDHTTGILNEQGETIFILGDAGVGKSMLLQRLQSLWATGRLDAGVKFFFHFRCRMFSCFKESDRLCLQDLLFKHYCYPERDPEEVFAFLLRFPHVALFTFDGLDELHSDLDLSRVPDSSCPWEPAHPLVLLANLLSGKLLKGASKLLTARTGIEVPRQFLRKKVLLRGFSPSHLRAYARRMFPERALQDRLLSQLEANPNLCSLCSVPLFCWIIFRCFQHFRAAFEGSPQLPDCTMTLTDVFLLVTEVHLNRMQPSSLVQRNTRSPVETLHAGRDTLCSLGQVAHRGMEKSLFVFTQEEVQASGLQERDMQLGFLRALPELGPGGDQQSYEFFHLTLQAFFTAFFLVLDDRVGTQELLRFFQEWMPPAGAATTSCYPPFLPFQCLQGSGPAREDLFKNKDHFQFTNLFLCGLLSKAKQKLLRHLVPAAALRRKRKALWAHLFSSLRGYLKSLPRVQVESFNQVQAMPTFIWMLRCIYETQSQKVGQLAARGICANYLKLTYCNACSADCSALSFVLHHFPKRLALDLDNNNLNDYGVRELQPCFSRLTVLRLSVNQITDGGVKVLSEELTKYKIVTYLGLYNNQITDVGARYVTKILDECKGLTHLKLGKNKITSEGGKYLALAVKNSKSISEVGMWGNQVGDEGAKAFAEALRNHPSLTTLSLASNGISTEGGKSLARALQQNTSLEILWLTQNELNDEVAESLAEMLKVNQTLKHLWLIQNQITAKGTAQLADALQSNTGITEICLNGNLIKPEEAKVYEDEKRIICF
# [22] = insulin promoter down-regulators in MIN6 cells, imaging, high-content screening, mouse beta cells (AID 1628); assay type: functional
# [23] = target: Tumor necrosis factor (Homo sapiens, UniProt P01375); experiment: TNFa-triggered NF-kB activation inhibitors, SAR follow-up, cell-based, revised (AID 2337); assay type: functional
# Sequence of Tumor necrosis factor (P01375 whole entry): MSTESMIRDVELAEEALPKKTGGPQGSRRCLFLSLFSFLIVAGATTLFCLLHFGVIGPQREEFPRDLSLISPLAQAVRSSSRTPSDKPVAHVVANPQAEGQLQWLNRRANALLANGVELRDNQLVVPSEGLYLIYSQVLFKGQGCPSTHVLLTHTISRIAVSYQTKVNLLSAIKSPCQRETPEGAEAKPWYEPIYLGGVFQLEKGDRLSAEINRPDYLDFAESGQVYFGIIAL
# [24] = target: Glyceraldehyde-3-phosphate dehydrogenase (Homo sapiens, UniProt P04406)
# Sequence of Glyceraldehyde-3-phosphate dehydrogenase (P04406 whole entry): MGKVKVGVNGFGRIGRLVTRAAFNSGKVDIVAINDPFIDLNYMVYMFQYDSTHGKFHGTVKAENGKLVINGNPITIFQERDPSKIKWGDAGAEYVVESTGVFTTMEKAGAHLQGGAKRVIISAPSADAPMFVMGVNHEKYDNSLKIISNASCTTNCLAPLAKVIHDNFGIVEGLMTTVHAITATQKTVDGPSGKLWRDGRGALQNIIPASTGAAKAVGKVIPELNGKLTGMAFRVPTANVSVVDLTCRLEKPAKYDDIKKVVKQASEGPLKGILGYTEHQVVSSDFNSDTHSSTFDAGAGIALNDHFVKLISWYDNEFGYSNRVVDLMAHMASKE
smiles,measurement,setting,value
CC(=O)n1cc(N(C(=O)CCl)c2ccc([N+](=O)[O-])cc2)c2ccccc21,AC50,[1],1.59 µM (active)
same,EC50,[2],2.59 µM (inconclusive)
same,EC50,[3],2.63 µM (inconclusive)
same,CC50,[4],12.3 µM (active)
same,EC50,[5],4.78 µM (inconclusive)
same,EC50,[6],2.65 µM (inconclusive)
same,IC50,[7],27 µM (inactive)
same,EC50,[8],0.358 µM (active)
Cc1cc(C)nc(SCC(=O)c2cccc(O)c2)n1,IC50,[9],> 100 µM (inactive)
same,IC50,[10],> 100 µM (inactive)
Cc1ccc(N(NC(=O)C(O)(c2ccccc2)c2ccccc2)C(=O)CCl)cc1,AC50,[1],4.45 µM (active)
same,AC50,[11],8.18 µM (active)
same,CC50,[12],6.32 µM (active)
same,EC50,[13],> 260 µM (inconclusive)
same,CC50,[4],7.46 µM (active)
same,EC50,[8],0.529 µM (active)
same,AC50,[14],11.8 µM (active)
O=C(Nc1ccc(S(=O)(=O)N2CCCC2)cc1)c1ccc(CN2CCc3ccccc3C2)cc1,AC50,[15],0.575 µM (active)
same,AC50,[16],0.406 µM (active)
same,IC50,[17],> 80 µM (inactive)
same,IC50,[18],6.77 µM (active)
same,IC50,[19],0.576 µM (active)
same,AC50,[20],0.292 µM (active)
same,IC50,[21],0.418 µM (active)
same,IC50,[22],0.707 µM (active)
same,IC50,[23],0.639 µM (active)
O=S(=O)(Nc1ccc2ccccc2c1)c1ccccc1,IC50,[10],> 100 µM (inactive)
same,IC50,[24],> 100 µM (not active)
